{
  "source": "patent US6709866B2",
  "about": "“Methods for enhancing survival of a neuron” (Aegera Therapeutics, Inc., priority 1996, dated 2004)",
  "origin": "cited, not measured here",
  "key": {"[1]": {"tested_on": "motoneurons", "conditions": "literature"}, "[2]": {"tested_on": "hippocampal cultures", "conditions": "100 pM"}, "[3]": {"tested_on": "primary hippocampal, cortical and septal cultures", "conditions": "Cheng et al. 1994"}},
  "data": [
    {"smiles": "CCSCc1ccc2c(c1)c1c3c(c4c5cc(CSCC)ccc5n5c4c1n2[C@H]1C[C@](O)(C(=O)OC)[C@]5(C)O1)CNC3=O", "note": "[CEP1347]", "values": [
      {"measurement": "motoneuron death and loss of ChAT in vivo", "setting": "[1]", "value": "prevents developmentally programmed motoneuron death and loss of ChAT in adult motoneurons"}
    ]},
    {"smiles": "C[C@]12O[C@H](C[C@]1(O)C(=O)O)n1c3ccccc3c3c4c(c5c6ccccc6n2c5c31)CNC4=O", "note": "[K252b]", "values": [
      {"measurement": "tyrosine phosphorylation of multiple proteins (40 to 200 kDa)", "setting": "[2]", "value": "enhance tyrosine phosphorylation"}
    ]},
    {"smiles": "O=c1c(-c2ccc(O)cc2)coc2cc(O)cc(O)c12", "note": "[genistein]", "values": [
      {"measurement": "effect on the neuroprotective effects of K252-like compounds", "setting": "[3]", "value": "blocked"}
    ]}
  ]
}
